From patent US20100210649A1, “PYRIDAZINONES AND FURAN-CONTAINING COMPOUNDS” (Sloan-Kettering Institute for Cancer Research, priority 2006, published 2010)
Read-outs that look alike come from different tables or passages of the source.

How the values were obtained:
in vitro = conditions: human
Procedure: NHBE (normal human bronchiolar epithelial cells) are primary cells obtained from donor lungs and commercially available from Cambrex. The HPL1D (human peripheral lung epithelial) cell line has been immortalized with the SV40 large T-antigen. WI-38: human lung fibroblast cell line. HPLID, NHBE and WI-38 cells will serve as controls in the chemical screens. WT: wildtype; WT*: over-expressed wildtype.
Compounds were tested in dose response studies from […] to 5 nM against several non small cell lung cancer lines: H358, H827, H1118, H1650, H1734, H1975, H2030, and H3255, and were also studied in a 72 hour cytotoxicity assay against the NHBE and WI-38 cell lines.

H3255 = assay: Non Small Cell Lung Cancer proliferation assay (Alamar Blue reduction), H3255; format: cell-based, human; conditions: Homo sapiens; for IC50: NCI-H3255, dose response 10 M to 5 nM, read-out: Dose Response (uM) H3255; for inhibition at 10 µM: NCI-H3255, primary screening, 10 μM compound in 1% DMSO (v/v)
Method in brief: (§1)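 Compounds are tested at 1% DMSO final concentration against adherent NSCLC cells for 48 h at 37° C, with cytotoxicity measured by Alamar Blue reduction after a further 48 h incubation.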

H358 = assay: Non Small Cell Lung Cancer proliferation assay (Alamar Blue reduction), H358; format: cell-based; conditions: Homo sapiens, read-out: Dose Response (uM) H358
Procedure: (§2) These cells have a doubling time of 1-2 days. All cell types are adherent and grow in colonies. The cells should be kept at a density between 50,000 cells/mL -500,000 cells/mL to provide for optimum growth and adequate nutrition. The cell line should be maintained at 37° C. in a humidified atmosphere with 5% CO2 in a sterile cell culture incubator.
(§3) Non Small Cell Lung Cancer Proliferation Assay.
(§4) High Controls for this assay are made by treating Non Small Cell Lung Cancer cells with 5 ul of 10% DMSO. [Final concentration in this assay is 1% DMSO].
(§5) Important Note: All compounds for testing in this assay should be done at the final concentration of 1% DMSO.
(§6) After addition, the cells are placed in cell culture incubator at 37° C. for 48 hours for complete treatment.
(§7) After drug treatment, cytotoxicity is measured by Alamar Blue reduction.
(§8) The cells are incubated for 48 hours at 37° C. to complete the Alamar Blue reduction.
(§9) The final step in the assay is to measure the amount of Alamar Blue reduction. […] The Alamar Blue fluorescence is measured at an excitation of 530 nm and emission of 590 nm.
(§10) For the NSCLC project, the cell based assay was screened against a small molecule library of approximately 200,000 compounds. The compound library is stored in our automated robotic freezer (Biophile) at −20° C. in 100% DMSO. Compound freeze and thaw cycles are kept to a minimum. […] This assay was performed on a fully automated linear track robotic platform (CRS F3 Robot System, Thermo Electron Corp., Ontario, Canada) utilizing several integrated peripherals for plate handling, liquid dispensing, and readout detection. […] The microplates are then placed at 37° C. for 48 hours to complete treatment of cells with compounds. Next, 5 ul of alamar blue was added using a liquid dispenser (Flexprop Precision Dispenser, Perkin Elmer, Mass., USA) and incubated for 48 hours at 37° C. The alamar blue prompt fluorescence was measured on Victor V (Victor^3 V, Perkin Elmer, Mass., USA) and output data files were loaded into ORIS (Oncology Research Informatics System, MSKCC, NY, USA), a screening data acquisition and analysis platform.
(§11) The dose response studies were done with the following standard procedure. First, the cells were counted and dispensed at 250 cells/well into 384-well microplates with compound. The cells were incubated for 48 hours at 37 C to complete treatment, and then alamar blue was added for an additional 48 hours. Finally, alamar blue reduction was measured and the data was loaded into ORIS, our data screening acquisition platform.

H1734 = assay: Non Small Cell Lung Cancer proliferation assay (Alamar Blue reduction), H1734; format: cell-based, human; conditions: Homo sapiens, read-out: Dose Response (uM) H1734
Procedure: as §2, §3, §4, §5, §6, §7, §8, §9, §10, §11

H1650 = assay: Non Small Cell Lung Cancer proliferation assay (Alamar Blue reduction), H1650; format: cell-based, human; conditions: Homo sapiens; for IC50: NCI-H1650, dose response 10 M to 5 nM, read-out: Dose Response (uM) H1650; for inhibition at 10 µM: NCI-H1650, primary screening, 10 μM compound in 1% DMSO (v/v)
Method in brief: as §1

H1975 = assay: Non Small Cell Lung Cancer proliferation assay (Alamar Blue reduction), H1975; format: cell-based, human; conditions: Homo sapiens; for IC50: NCI-H1975, dose response 10 M to 5 nM, read-out: Dose Response (uM) H1975; for inhibition at 10 µM: NCI-H1975, primary screening, 10 μM compound in 1% DMSO (v/v)
Method in brief: as §1

H2030 = assay: Non Small Cell Lung Cancer proliferation assay (Alamar Blue reduction), H2030; format: cell-based, human; conditions: Homo sapiens; for IC50: NCI-H2030, dose response 10 M to 5 nM, read-out: Dose Response (uM) H2030; for inhibition at 10 µM: NCI-H2030, primary screening, 10 μM compound in 1% DMSO (v/v)
Method in brief: as §1

IC50 (H3255) [µM] | IC50 (H358; NCI-H358) [µM] | IC50 (H1734; NCI-H1734) [µM] | IC50 (H1650) [µM] | IC50 (H1975) [µM] | IC50 (H2030) [µM] | Structure (SMILES) | IC50 at 72 h (in vitro; CytoTox (uM) NHBE) [µM] | IC50 at 72 h (in vitro; CytoTox (uM) WI-38) [µM] | IC50 (H358; NCI-H358, dose response 10 M to 5 nM, IC50) [µM] | IC50 (H1734; NCI-H1734, dose response 10 M to 5 nM, IC50) [µM] | inhibition at 10 µM (H3255; H3255, read-out: PRIMARY HTS [%] H3255 (percentage inhibition)) [%] | inhibition at 10 µM (H1650; H1650, read-out: PRIMARY HTS [%] H1650 (percentage inhibition)) [%] | inhibition at 10 µM (H1975; H1975, read-out: PRIMARY HTS [%] H1975 (percentage inhibition)) [%] | inhibition at 10 µM (H2030; H2030, read-out: PRIMARY HTS [%] H2030 (percentage inhibition)) [%] | inhibition at 10 µM (H3255; read-out: percentage inhibition H3255) [%] | inhibition at 10 µM (H1650; read-out: percentage inhibition H1650) [%] | inhibition at 10 µM (H1975; read-out: percentage inhibition H1975) [%] | inhibition at 10 µM (H2030; read-out: percentage inhibition H2030) [%]
> 10 | > 10 | > 10 | > 10 | > 10 | > 10 | O=c1c(Cl)c(Cl)cnn1-c1c(Cl)cc(C(F)(F)F)cc1Cl [compound 267059] | > 10 | > 10 |  |  |  |  |  |  |  |  |  | 
> 10 | > 10 | > 10 | > 10 | > 10 | > 10 | COc1ccc(=O)n(-c2cccc(C)c2)n1 [compound 257029] | > 10 | > 10 |  |  |  |  |  |  |  |  |  | 
> 10 | > 10 | > 10 | > 10 | > 10 | > 10 | Cc1cccc(-n2ncc(N=[N+]=[N-])c(Cl)c2=O)c1 [compound 267082] | > 10 | > 10 |  |  |  |  |  |  |  |  |  | 
> 10 | > 10 | > 10 | > 10 | > 10 | > 10 | O=C(O)CCC(=O)NCCCOc1cccc(-n2ncc(Br)c(Br)c2=O)c1 [compound 273633] | > 10 | > 10 |  |  |  |  |  |  |  |  |  | 
 |  |  |  |  |  | O=[N+]([O-])c1ccc(CN2CCN(c3ccccc3F)CC2)o1 [compound 100792] |  |  |  |  | 1 | -5 | -9 | 43 |  |  |  | 
 |  |  |  |  |  | CSc1cnn(-c2ccccc2)c(=O)c1SC [compound 104423] |  |  |  |  |  |  |  |  | 1 | -11 | -20 | -3

Structure (SMILES) | IC50 (H3255) [µM] | IC50 (H358; NCI-H358) [µM] | IC50 (H1734; NCI-H1734) [µM] | IC50 (H1650) [µM] | IC50 (H1975) [µM] | IC50 (H2030) [µM] | IC50 at 72 h (in vitro; CytoTox (uM) NHBE) [µM] | IC50 at 72 h (in vitro; CytoTox (uM) WI-38) [µM] | IC50 (H358; NCI-H358, dose response 10 M to 5 nM, IC50) [µM] | IC50 (H1734; NCI-H1734, dose response 10 M to 5 nM, IC50) [µM] | inhibition at 10 µM (H3255; H3255, read-out: PRIMARY HTS [%] H3255 (percentage inhibition)) [%] | inhibition at 10 µM (H1650; H1650, read-out: PRIMARY HTS [%] H1650 (percentage inhibition)) [%] | inhibition at 10 µM (H1975; H1975, read-out: PRIMARY HTS [%] H1975 (percentage inhibition)) [%] | inhibition at 10 µM (H2030; H2030, read-out: PRIMARY HTS [%] H2030 (percentage inhibition)) [%] | inhibition at 10 µM (H3255; read-out: percentage inhibition H3255) [%] | inhibition at 10 µM (H1650; read-out: percentage inhibition H1650) [%] | inhibition at 10 µM (H1975; read-out: percentage inhibition H1975) [%] | inhibition at 10 µM (H2030; read-out: percentage inhibition H2030) [%]
CCOc1cnn(-c2cccc(C)c2)c(=O)c1Cl [compound 267075] | > 10 |  |  | > 10 | > 10 | > 10 | > 10 | > 10 | > 10 | > 10 |  |  |  |  |  |  |  | 
